Experimental data from US20240109912A1, “TRICYCLIC PYRIMIDINES AS CYCLIN-DEPENDENT KINASE 7 (CDK7) INHIBITORS” (JANSSEN PHARMACEUTICA NV, priority 2020, published 2024).
pIC50: −log10 of the molar value. Where “and” joins values, the source holds several entries; their conditions need not be identical. Equal values may be shown once. Read-outs that look alike come from different tables or passages of the source.

Columns and labels:
[1] = tested on: RNA polymerase II Serine 5 phosphorylation in A549 cells overexpressing CDK7 mutant (C312S); test: Imaging-based cellular RNA PolII Ser5 phosphorylation assay in A549 cells overexpressing CDK7-mutant (C312S); assay type: cell-based, human; conditions: for IC50: Homo sapiens, A549, A549 cells overexpressing CDK7 mutant (C312S), read-out: CDK7_ A549 mutant hCDK7(pIC50) (converted); for CDK7_ A549 mutant hCDK7(pIC50): A549 cells overexpressing CDK7 mutant (C312S)
Method in brief: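 A stably transduced A549 pool overexpressing CDK7 C312S, a mutant that blocks covalent binding at Cys312, while retaining endogenous wild-type CDK7 was used. Ser5 phosphorylation was measured by imaging, and IC50 values were derived.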

[2] = tested on: RNA polymerase II Serine 5 phosphorylation (CDK7) in A549 cells
[3] = target: CDK7/cyclinH/MAT1 trimeric complex (Homo sapiens (Human), UniProt P50613); test: In vitro CDK7 assay, potency of irreversible covalent inhibitors (kinact/KI); conditions: for kinact: read-out: CDK7 (20 nM enz.) (kinact, s^−1), 20 nM enz.
Chain of CDK7/cyclinH/MAT1 trimeric complex (P50613 whole entry): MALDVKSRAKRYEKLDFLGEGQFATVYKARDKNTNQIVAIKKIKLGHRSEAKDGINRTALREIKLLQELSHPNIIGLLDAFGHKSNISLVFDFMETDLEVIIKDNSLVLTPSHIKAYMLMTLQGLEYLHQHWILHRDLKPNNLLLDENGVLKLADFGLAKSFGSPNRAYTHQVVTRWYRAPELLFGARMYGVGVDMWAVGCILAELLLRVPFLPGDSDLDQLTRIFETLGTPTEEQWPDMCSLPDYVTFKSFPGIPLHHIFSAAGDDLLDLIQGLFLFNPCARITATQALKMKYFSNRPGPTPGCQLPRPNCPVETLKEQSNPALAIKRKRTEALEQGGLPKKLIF
Chain of CDK7/cyclinH/MAT1 trimeric complex (P51946 whole entry partner): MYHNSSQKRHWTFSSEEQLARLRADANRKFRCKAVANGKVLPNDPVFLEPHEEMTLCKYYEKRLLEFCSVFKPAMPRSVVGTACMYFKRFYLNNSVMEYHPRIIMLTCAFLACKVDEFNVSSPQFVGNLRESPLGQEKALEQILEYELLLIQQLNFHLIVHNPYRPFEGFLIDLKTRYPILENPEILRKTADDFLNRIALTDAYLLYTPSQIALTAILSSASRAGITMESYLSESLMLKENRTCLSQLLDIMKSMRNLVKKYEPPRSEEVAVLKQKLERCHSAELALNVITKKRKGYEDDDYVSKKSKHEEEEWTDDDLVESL
Chain of CDK7/cyclinH/MAT1 trimeric complex (P51948 whole entry partner): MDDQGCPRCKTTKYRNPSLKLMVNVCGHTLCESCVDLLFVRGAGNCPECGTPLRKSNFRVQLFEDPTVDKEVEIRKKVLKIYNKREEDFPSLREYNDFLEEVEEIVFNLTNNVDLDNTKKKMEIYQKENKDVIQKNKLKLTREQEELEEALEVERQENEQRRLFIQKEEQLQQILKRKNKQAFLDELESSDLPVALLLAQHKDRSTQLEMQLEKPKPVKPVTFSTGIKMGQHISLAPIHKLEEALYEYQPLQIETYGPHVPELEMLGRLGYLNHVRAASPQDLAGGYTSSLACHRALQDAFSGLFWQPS

[4] = CDK7 (20 nM enz.) (KI, μM), 20 nM enz.
[5] = read-out: CDK7 (20 nM enz.) (kinact/ KI, M^−1*s^−1), 20 nM enz.
[6] = read-out: CDK7 (20 nM enz.) (kobs/[I], M^−1*s^−1), 20 nM enz.

| Compound | IC50 [1] [nM] | melting point [°C] | pIC50 [2] | CDK7_ A549 mutant hCDK7(pIC50) [1] | CDK7 (20 nM enz.) (kinact, s^−1) ([3]; 20 nM enz.) | Ki [3, 4] | kinact [3] [s⁻¹] | Ki ([3]; CDK7 (KI(μM)), Table B) | kinact/KI [3, 5] [M⁻¹ s⁻¹] | CDK7 (20 nM enz.) (kobs/[I], M^−1*s^−1) ([3]; 20 nM enz.) [M⁻¹ s⁻¹] | kinact/KI [3, 6] [M⁻¹ s⁻¹] |
| --- | --- | --- | --- | --- | --- | --- | --- | --- | --- | --- | --- |
| CC#CC(=O)N1CCC(C)(N2CC(c3cc(C)c4c(c3)Nc3ncnc(N5CCS(=O)(=O)CC5)c3[C@@H](C)O4)C2)C1 (mixture of isomers) [compound 147] | > 10000 | 244 | 6.51 | – | – | – | – | – | – | – | – |
| CC#CC(=O)N1CCC(N2CC(c3cc(C)c4c(c3)Nc3ncnc(N5CCS(=O)(=O)CC5)c3C(C)O4)C2)CC1 (racemic) [compound 123] | 8320 | 218 | 7.30 | – | – | – | – | – | – | – | – |
| C=CC(=O)N1CC(N2CCC(c3cc4c(cn3)O[C@@H](C)c3c(ncnc3N3CCOCC3)N4)CC2)C1 (single isomer, unassigned) [compound 62] | > 3980 | 253 | – | <5.4 | 4.79e-05 s⁻¹ | 0.504 µM and 2.05 µM | 5.74e-05 | – | – | – | – |
| C=CC(=O)N1CCC(N2CC(c3cc(C)c4c(c3)Nc3ncnc(N5CCS(=O)(=O)CC5)c3[C@H](C)O4)C2)CC1 (single isomer, unassigned) [compound 100] | ~6610 | 226 | – | 5.25 and 5.24 and 5.16 | – | – | – | – | – | – | – |
| C=CC(=O)N1CCC(N2CC(c3cc(C)c4c(c3)Nc3ncnc(N5CCS(=O)(=O)CC5)c3[C@@H](C)O4)C2)CC1 (single isomer, unassigned) [compound 102] | > 10000 | 227 | 6.73 and 6.76 and 6.82 and 6.83 | – | – | – | – | – | – | – | – |
| C=CC(=O)N1CCN(C2CN(c3ccc4c(c3)Nc3ncnc(N5CCOCC5)c3CO4)C2)CC1 [compound 4] | > 10000 | 151 | < 5.00 | – | – | – | – | – | – | – | – |
| C=CC(=O)N1CC(N2CC=C(c3ccc4c(c3)Nc3ncnc(N5CCOCC5)c3CO4)CC2)C1 [compound 33] | > 10000 | 193 | 5.63 | – | – | – | – | – | – | – | – |
| C=CC(=O)N1CC(N2CCC(c3cc(C)c4c(c3)Nc3ncnc(-c5cncc(OCC)c5)c3CO4)CC2)C1 [compound 82] | > 10000 | – | 5.90 | – | – | 1.28 µM | 4.27e-05 | – | 33.4 | – | – |
| C=CC(=O)N1CC(N2CC(c3cc(C)c4c(c3)Nc3ncnc(N5CCOCC5)c3C(C)O4)C2)C1 (stereo not drawn) [compound 103] | > 10000 | – | ~5.99 | – | – | 0.32 µM | 5.08e-05 | – | 159 | – | – |
| CC#CC(=O)N1CC(C)(N2CCC(c3cc(C)c4c(c3)Nc3ncnc(N5CCS(=O)(=O)CC5)c3[C@@H](C)O4)CC2)C1 [compound 144] | > 10000 | – | ~7.33 | – | – | 0.00389 µM | 4.73e-05 | – | 12200 | – | – |
| CC#CC(=O)N1CC(N2CCC(c3cc(C)c4c(c3)Nc3ncnc(N5CCS(=O)(=O)CC5)c3[C@@H](C)O4)CC2)C1 [compound 148] | > 10000 | – | 7.37 and 7.22 and 7.12 and 7.20 and ~7.21 | – | 6.08e-05 s⁻¹ and 5.32e-05 s⁻¹ and 4.3e-05 s⁻¹ | 0.0218 µM and 0.0473 µM and 0.0348 µM and 0.00601 µM | 4.04e-05 | – | – | 1230.83 | 952 |
| CC#CC(=O)N1CCC(N2CCN(c3cc(C)c4c(c3)Nc3ncnc(N5CCS(=O)(=O)CC5)c3[C@@H](C)O4)CC2)CC1 [compound 154] | > 10000 | – | ~7.27 | – | – | 0.00416 µM | 5.87e-05 | – | 14100 | – | – |
| CC#CC(=O)N1CC(N2CCN(c3cc(C)c4c(c3)Nc3ncnc(N5CCS(=O)(=O)CC5)c3[C@@H](C)O4)CC2)C1 [compound 155] | > 10000 | – | 6.67 | – | – | 0.00172 µM | 2.06e-05 | – | 12200 | – | – |
| C#Cc1cc(C2CCN(C3CN(C(=O)C=C)C3)CC2)cc2c1O[C@@H](C)c1c(ncnc1N1CCS(=O)(=O)CC1)N2 [compound 190] | > 10000 | – | ~7.30 and ~7.39 | – | – | – | – | – | – | – | 839 |
| C#Cc1cc(C2CN([C@H]3CCN(C(=O)C=C)C3)C2)cc2c1O[C@H](C)c1c(ncnc1N1CCS(=O)(=O)CC1)N2 [compound 193] | > 10000 | – | 6.29 | – | – | 0.156 µM | 2.62e-05 | – | 168 | – | – |
| C#Cc1cc(C2CN([C@H]3CCN(C(=O)C=C)C3)C2)cc2c1O[C@@H](C)c1c(ncnc1N1CCS(=O)(=O)CC1)N2 [compound 194] | > 10000 | – | 6.80 | – | – | 0.0177 µM | 2.42e-05 | – | 1370 | – | – |

Second part, the molecule after the results:

| IC50 [1] [nM] | melting point [°C] | pIC50 [2] | CDK7_ A549 mutant hCDK7(pIC50) [1] | CDK7 (20 nM enz.) (kinact, s^−1) ([3]; 20 nM enz.) | Ki [3, 4] | kinact [3] [s⁻¹] | Ki ([3]; CDK7 (KI(μM)), Table B) | kinact/KI [3, 5] [M⁻¹ s⁻¹] | CDK7 (20 nM enz.) (kobs/[I], M^−1*s^−1) ([3]; 20 nM enz.) [M⁻¹ s⁻¹] | kinact/KI [3, 6] [M⁻¹ s⁻¹] | Compound |
| --- | --- | --- | --- | --- | --- | --- | --- | --- | --- | --- | --- |
| > 10000 | 292 | 6.60 and 6.86 | – | – | – | – | – | – | – | – | CC#CC(=O)N1CCC(N2CC(c3cc(C)c4c(c3)Nc3ncnc(N5CCS(=O)(=O)CC5)c3[C@@H](C)O4)C2)CC1 (single isomer, unassigned) [compound 124] |
| 6760 | 203 | ~7.75 and ~7.57 | 5.26 | – | – | – | – | – | – | – | CC#CC(=O)N1CCC(N2CC(c3cc(C)c4c(c3)Nc3ncnc(N5CCS(=O)(=O)CC5)c3[C@H](C)O4)C2)CC1 (single isomer, unassigned) [compound 125] |
| > 10000 | 184 | – | – | – | 0.389 µM | 9.1e-05 | 0.598 µM and 0.167 µM and 0.608 µM and 0.285 µM | 234 | – | – | C=CC(=O)N1CC(N2CCC(c3ccc4c(c3)Nc3ncnc(N5CCOCC5)c3CO4)CC2)C1 [compound 1] |
| > 10000 | – | 6.44 | – | – | 0.31 µM | 4.82e-05 | – | 156 | – | – | C=CC(=O)N1CC(N2CCC(c3cc(C)c4c(c3)Nc3ncnc(-c5cn(C)nc5C)c3CO4)CC2)C1 [compound 81] |
| ~10000 | 232 | 6.60 | – | – | – | – | – | – | – | – | C=CC(=O)N1CC[C@H](N2CC(c3cc(C)c4c(c3)Nc3ncnc(N5CCS(=O)(=O)CC5)c3CO4)C2)C1 [compound 90] |
| > 10000 | 241 | 6.37 | – | – | – | – | – | – | – | – | C=CC(=O)N1CC[C@@H](N2CC(c3cc(C)c4c(c3)Nc3ncnc(N5CCS(=O)(=O)CC5)c3CO4)C2)C1 [compound 92] |
| > 10000 | 169 | – | – | 8.74e-05 s⁻¹ | 0.077 µM and 0.0323 µM | 5.87e-05 | – | – | 1455 | 1460 | C=CC(=O)N1CC(N2CCC(c3cc(C)c4c(c3)Nc3ncnc(N5CCS(=O)(=O)CC5)c3CO4)CC2)C1 [compound 101] |
| > 10000 | – | 7.30 | – | – | – | – | – | – | – | 1140 | C=CC(=O)N1CCC(N2CCC(c3cc(C)c4c(c3)Nc3ncnc(N5CCS(=N)(=O)CC5)c3CO4)CC2)C1 (stereo not drawn) [compound 104] |
| > 10000 | – | 6.55 | – | – | 0.121 µM | 3.13e-05 | – | 259 | – | – | C=CC(=O)N1CCC(N2CC(c3cc(C)c4c(c3)Nc3ncnc(N5CCS(=N)(=O)CC5)c3CO4)C2)CC1 [compound 105] |
| > 10000 | – | 6.61 | – | – | 0.0858 µM | 6.75e-05 | – | 786 | – | – | C=CC(=O)N1CC(N2CCC(c3cc(C#N)c4c(c3)Nc3ncnc(N5CCOCC5)c3CO4)CC2)C1 [compound 106] |
| > 10000 | – | 6.09 | – | – | 0.0322 µM | 4.3e-05 | – | 1330 | – | – | C=CC(=O)N1CC(N2CC(c3cc(C)c4c(c3)Nc3ncnc(N5CCS(=N)(=O)CC5)c3CO4)C2)C1 [compound 110] |
| > 10000 | – | 6.54 | – | – | 0.112 µM | 0.000116 | – | 1030 | – | – | C=CC(=O)N1CC(N2CC(c3cc(C)c4c(c3)Nc3ncnc(N5CCS(=O)(=O)CC5)c3CO4)C2)C1 [compound 111] |
| > 10000 | – | 5.04 | – | – | – | 3.36e-06 | – | – | – | – | C=CC(=O)N1CC(N2CCC(c3cc(C)c4c(c3)Nc3ncnc(N5CCC(CCO)C5)c3CO4)CC2)C1 (stereo not drawn) [compound 113] |
| > 10000 | – | 6.28 | – | – | 0.295 µM | 3.8e-05 | – | 129 | – | – | C=CC(=O)N1CCC(N2CC(c3cc(C#N)c4c(c3)Nc3ncnc(N5CCOCC5)c3CO4)C2)CC1 [compound 120] |
| > 10000 | – | 7.33 | – | – | 0.0908 µM | 7.15e-05 | – | 788 | – | – | CC#CC(=O)N1CCC(N2CC=C(c3cc(C)c4c(c3)Nc3ncnc(N5CCS(=O)(=O)CC5)c3CO4)CC2)CC1 [compound 138] |
| > 10000 | – | 6.94 | – | – | 0.0135 µM | 9.88e-05 | – | 7340 | – | – | [2H]C1(N2CCC(c3cc(C)c4c(c3)Nc3ncnc(N5CCS(=O)(=O)CC5)c3[C@@H](C)O4)CC2)CN(C(=O)C#CC)C1 [compound 160] |
| > 10000 | – | 6.72 | – | – | 0.1 µM | 8.29e-05 | – | 809 | – | – | C#Cc1cc(C2CCN(C3CN(C(=O)C#CC)C3)CC2)cc2c1O[C@@H](C)c1c(ncnc1N1CCS(=O)(=O)CC1)N2 [compound 191] |
| > 10000 | – | 6.34 | – | – | 0.856 µM | 8.38e-05 | – | 103 | – | – | C#Cc1cc(C2CCN(C3CN(C(=O)C#CC)C3)CC2)cc2c1O[C@H](C)c1c(ncnc1N1CCS(=O)(=O)CC1)N2 [compound 192] |
| > 10000 | – | 6.99 | – | – | 0.108 µM | 5.21e-05 | – | 485 | – | – | CC#CC(=O)N1CC(N2CCC(c3cc(C)c4c(c3)Nc3ncnc(N5CCOC6(COC6)C5)c3CO4)CC2)C1 [compound 195] |
